± gives the standard deviation of the averaged measurements.
What was measured:
[1] = system: Homo sapiens (human subject panel, olfactory perception); test: perceived odor pleasantness rating (rating 0-100); higher = more pleasant
Procedure, shortened: (§1)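 Fifty-five healthy human subjects aged 18–50 took part, and the six lowest performers were excluded. Each molecule was diluted in paraffin oil at high and low concentrations, and 1 mL was sniffed in randomized order over ten visits of 100 stimuli each. Subjects who reported smelling a stimulus rated it on a computerized slider that started at 50 and had to be moved, with positions converted to a 0–100 scale. The familiarity, intensity and pleasantness values are averages across subjects.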

[2] = system: Homo sapiens (human subject panel, olfactory perception); test: perceived odor familiarity rating (rating 0-100); higher = more familiar
Procedure, shortened: as §1

[3] = system: Homo sapiens (human subject panel, olfactory perception); test: perceived odor intensity rating (rating 0-100); higher = stronger perceived smell
Procedure, shortened: as §1

[4] = odor dilution in paraffin oil: 1/1,000
[5] = odor dilution in paraffin oil: 1/100,000
[6] = odor dilution in paraffin oil: 1/10,000,000
[7] = odor dilution in paraffin oil: 1/10

Row | SMILES | perceived odor pleasantness rating [1, 4] | perceived odor pleasantness rating [1, 5] | perceived odor familiarity rating [2, 4] | perceived odor familiarity rating [2, 5] | perceived odor intensity rating [3, 4] | perceived odor intensity rating [3, 5] | perceived odor pleasantness rating [1, 6] | perceived odor familiarity rating [2, 6] | perceived odor intensity rating [3, 6] | perceived odor pleasantness rating [1, 7] | perceived odor familiarity rating [2, 7] | perceived odor intensity rating [3, 7]
1 | CC(=O)OC(C)C [isopropyl acetate] | 51.5 ± 21 | 50 ± 23 | 40.1 ± 30 | 47.6 ± 27 | 13.3 ± 20 | 20.2 ± 23 | – | – | – | – | – | –
2 | CC(C)CC(=O)O [isovaleric acid] | – | 12.9 ± 19 | – | 54.3 ± 33 | – | 82 ± 20 | 20.7 ± 22 | 48 ± 31 | 58.5 ± 30 | – | – | –
3 | CC1(C)C(=O)[C@@]2(C)CC[C@H]1C2 [l-fenchone] | 44.6 ± 28 | 49.3 ± 26 | 58.3 ± 31 | 33.1 ± 32 | 64.5 ± 31 | 9.45 ± 15 | – | – | – | – | – | –
4 | C=CC1(C)CCC(C(C)(C)O)O1 (stereo not drawn) [linalool oxide] | 46.5 ± 26 | 49.6 ± 19 | 42.8 ± 31 | 37 ± 28 | 44.4 ± 31 | 15.9 ± 19 | – | – | – | – | – | –
5 | COc1cccc(C=O)c1 [m-Anisaldehyde] | 53 ± 24 | 54 ± 25 | 47.4 ± 29 | 41.3 ± 30 | 48.7 ± 31 | 12.2 ± 19 | – | – | – | – | – | –
6 | CO [methanol] | 42.7 ± 22 | – | 30.9 ± 25 | – | 18 ± 24 | – | – | – | – | 39.5 ± 23 | 37.9 ± 29 | 35 ± 30
7 | COC(=O)c1ccco1 [methyl 2-furoate] | 37.2 ± 24 | 48.7 ± 22 | 43.2 ± 29 | 39.5 ± 28 | 62.6 ± 25 | 33.8 ± 34 | – | – | – | – | – | –
8 | COC(C)=O [methyl acetate] | 36.4 ± 19 | – | 29.6 ± 31 | – | 23.9 ± 29 | – | – | – | – | 26.9 ± 20 | 57.2 ± 28 | 66.2 ± 28
9 | COC(=O)c1ccccc1 [methyl benzoate] | – | 45.9 ± 23 | – | 35.1 ± 32 | – | 36.1 ± 30 | 47.8 ± 23 | 38 ± 32 | 14.2 ± 22 | – | – | –
10 | CCCCCC(=O)OC [methyl caproate] | 56.2 ± 29 | 51.8 ± 22 | 56.4 ± 31 | 36.3 ± 31 | 68.4 ± 26 | 30.5 ± 29 | – | – | – | – | – | –
11 | C/C=C/c1ccc(OC)c(OC)c1 [methyl isoeugenol] | 58.8 ± 26 | 39.5 ± 23 | 48.2 ± 31 | 30.1 ± 24 | 37.9 ± 31 | 25.4 ± 35 | – | – | – | – | – | –
12 | COC(=O)c1ccccc1O [methyl salicylate] | 60.8 ± 26 | 56.7 ± 21 | 63.9 ± 32 | 38.1 ± 32 | 71.9 ± 22 | 16.7 ± 22 | – | – | – | – | – | –
13 | CSC [methyl sulfide] | 33.6 ± 27 | 33.4 ± 27 | 43.7 ± 34 | 47.3 ± 32 | 56.4 ± 35 | 58.8 ± 32 | – | – | – | – | – | –
14 | CC(=O)c1c(C)c([N+](=O)[O-])c(C(C)(C)C)c([N+](=O)[O-])c1C [musk ketone] | 63.1 ± 25 | – | 50.2 ± 27 | – | 49.3 ± 32 | – | – | – | – | 65.2 ± 23 | 53 ± 30 | 48.1 ± 34
15 | CCCCCCCCCO [nonanol] | 35.8 ± 24 | 42.9 ± 25 | 46.9 ± 29 | 35.6 ± 31 | 66.4 ± 26 | 28.5 ± 30 | – | – | – | – | – | –
16 | COc1ccccc1C=O [o-Anisaldehyde (replicate)] | 40.8 ± 28 | 40.3 ± 24 | 50.7 ± 31 | 46 ± 29 | 72.1 ± 23 | 36 ± 32 | – | – | – | – | – | –
17 | COc1ccccc1C=O [o-Anisaldehyde] | 32 ± 22 | 38 ± 22 | 45.8 ± 27 | 41.2 ± 27 | 70 ± 25 | 38.5 ± 27 | – | – | – | – | – | –
18 | Cc1ccccc1C=O [o-Tolualdehyde] | 52.7 ± 30 | 60.2 ± 24 | 58.9 ± 32 | 49.1 ± 31 | 78.1 ± 21 | 37.2 ± 31 | – | – | – | – | – | –
19 | Cc1ccccc1S [o-Toluenethiol] | – | 24.8 ± 24 | – | 54.8 ± 28 | – | 72.8 ± 24 | 47.9 ± 18 | 36.9 ± 24 | 30.2 ± 31 | – | – | –

Row | SMILES | perceived odor pleasantness rating [1, 4] | perceived odor pleasantness rating [1, 5] | perceived odor familiarity rating [2, 4] | perceived odor familiarity rating [2, 5] | perceived odor intensity rating [3, 4] | perceived odor intensity rating [3, 5] | perceived odor pleasantness rating [1, 6] | perceived odor familiarity rating [2, 6] | perceived odor intensity rating [3, 6] | perceived odor pleasantness rating [1, 7] | perceived odor familiarity rating [2, 7] | perceived odor intensity rating [3, 7]
20 | CCCCCCCC=O [octanal] | 33.1 ± 22 | 65 ± 25 | 50.5 ± 31 | 62.9 ± 29 | 66.7 ± 26 | 55 ± 28 | – | – | – | – | – | –
21 | CCCCCCCCO [octanol] | 49.9 ± 28 | 46.2 ± 24 | 51.7 ± 33 | 38.3 ± 26 | 65.6 ± 26 | 25 ± 27 | – | – | – | – | – | –
22 | COc1ccc(C=O)cc1 [p-Anisaldehyde] | 60 ± 25 | 69 ± 21 | 54.5 ± 30 | 49.2 ± 32 | 71.2 ± 22 | 45.9 ± 31 | – | – | – | – | – | –
23 | CC(=O)Oc1ccc(C)cc1 [p-Tolyl acetate] | 47 ± 26 | 29 ± 25 | 59.6 ± 28 | 46.8 ± 31 | 72.6 ± 19 | 60.9 ± 28 | – | – | – | – | – | –
24 | Cc1ccc(O)cc1 [p-cresol] | 32.3 ± 29 | 31.6 ± 26 | 55 ± 33 | 54.1 ± 31 | 79 ± 20 | 68 ± 30 | – | – | – | – | – | –
25 | Cc1ccc(C(C)C)cc1 [para-cymene] | 47.4 ± 26 | – | 55.8 ± 32 | – | 66.4 ± 28 | – | – | – | – | 37 ± 28 | 54.7 ± 32 | 83.7 ± 15
26 | CCCCCO [pentanol] | 23.9 ± 23 | 41.9 ± 26 | 46 ± 30 | 36.6 ± 28 | 68.4 ± 28 | 31.2 ± 32 | – | – | – | – | – | –
27 | CCCCCOC(C)=O [pentyl acetate] | 57.5 ± 32 | 57.6 ± 23 | 58.2 ± 33 | 45.2 ± 28 | 64.8 ± 30 | 42.6 ± 28 | – | – | – | – | – | –
28 | O=Cc1ccc2c(c1)OCO2 [piperonal] | 72 ± 20 | – | 54.6 ± 30 | – | 42.5 ± 29 | – | – | – | – | 70.9 ± 23 | 64.5 ± 27 | 69.3 ± 22
29 | CCCO [propanol] | 49.7 ± 20 | 50.1 ± 21 | 30.3 ± 21 | 48.1 ± 32 | 28.7 ± 28 | 26.8 ± 28 | – | – | – | – | – | –
30 | CCC(=O)O [propionic acid (replicate)] | – | 38.7 ± 20 | – | 37.3 ± 30 | – | 38.6 ± 32 | 36.7 ± 25 | 44.1 ± 30 | 7.72 ± 8.4 | – | – | –
31 | CCC(=O)O [propionic acid] | – | 39.5 ± 25 | – | 35.3 ± 31 | – | 34.4 ± 33 | 45.2 ± 24 | 36.8 ± 25 | 20.5 ± 27 | – | – | –
32 | CCCOC(C)=O [propyl acetate] | 43.5 ± 24 | 49 ± 20 | 55.1 ± 30 | 41.6 ± 28 | 43.8 ± 36 | 24.5 ± 26 | – | – | – | – | – | –
33 | CCCOC(=O)CCC [propyl butyrate] | 42.5 ± 27 | 33.6 ± 25 | 52.5 ± 27 | 39.4 ± 27 | 64.7 ± 27 | 36.7 ± 31 | – | – | – | – | – | –
34 | CCCSCCC [propyl sulfide] | – | 44.5 ± 28 | – | 29.4 ± 28 | – | 28.1 ± 31 | 40.7 ± 25 | 34.7 ± 38 | 11.6 ± 12 | – | – | –
35 | c1cnccn1 [pyrazine] | 44.8 ± 21 | 39.6 ± 24 | 35.4 ± 27 | 36.8 ± 28 | 18.9 ± 22 | 38.5 ± 32 | – | – | – | – | – | –
36 | c1ccncc1 [pyridine] | – | 46.8 ± 24 | – | 33.7 ± 29 | – | 21.5 ± 23 | 54.2 ± 25 | 28 ± 28 | 13 ± 21 | – | – | –
37 | O=Cc1ccccc1O [salicylaldehyde] | 30.6 ± 26 | 39.5 ± 23 | 51.7 ± 31 | 39.9 ± 28 | 77.9 ± 19 | 53.5 ± 28 | – | – | – | – | – | –
38 | CC(C)(C)O [tert-butanol] | 58.8 ± 22 | – | 34.7 ± 29 | – | 24.8 ± 30 | – | – | – | – | 44.9 ± 24 | 47.5 ± 32 | 56 ± 32

Reference: the supplement of paper PMC4977894
